Laboratory results from paper PMC10610134, “Verubulin (Azixa) Analogues with Increased Saturation: Synthesis, SAR and Encapsulation in Biocompatible Nanocontainers Based on Ca^2+ or Mg^2+ Cross-Linked Alginate” (Pharmaceuticals, 2023).
Entries after “also recorded” stand apart in the source; their conditions may differ.

Experiments:
[1] = test system: microtubules in carcinoma A549 cells; assay: Immunofluorescent microscopy of microtubules; format: cell-based, human
Description: Since verubulin is known to stimulate microtubule disassociation, we performed an immunofluorescent microscopy study to determine the response of microtubule dynamics in carcinoma A549 cells to the treatment with representative compounds 2b,c,e. […] Aberrant cell morphology—contraction and rounding (Figure 2A,B) or contraction and elongation (Figure 2C)—was also observed.
A549 cells were seeded on coverslips (treated with poly-l-lysine at a concentration of 33 mg/L for an hour). Compounds were added up to the corresponding concentration after 24 h attachment and growth of the cells. Then, cells were incubated 24 h.
The cells were fixed with methanol (precooled in liquid nitrogen for 20 min), no additional permeabilization was performed. To prevent non-specific binding, cells were incubated with 4% BSA in PBS for one hour. Then, a solution of mouse monoclonal antibodies against alpha-tubulin cross-linked with Alexa 488 fluoroform (Thermo Fisher Scientific, Waltham, MA, USA, 32-2588) at a concentration of 5 μg/mL in 1% BSA solution in PBS was added to the cells, and the slides were incubated at +5 °C in a water chamber for 24 h. After the end of the incubation time, the cells were washed several times with PBS buffer solution and fixed on a glass slide with Moviol. Next day, cells were imaged with a ZEISS LSM 900 (ZEISS Microscopy, GmbH, Germany) and images processed with ImageJ.

[2] = test system: human breast cancer cell line MCF7′; assay: MTT cytotoxicity assay, MCF7′; format: cell-based; conditions: MCF7, 64 h treatment, MTT, read-out: IC50, nM MCF7′
Text: (§1) The obtained series of verubulin analogues 2a–r (which also included three by-products isolated in the reactions according to Scheme 2) were initially evaluated for cytotoxicity against commonly used human breast cancer cell line MCF7′ (fast-growth subclone), human lung epithelial carcinoma cell line A549 and etiologically non-cancer immortalized lung fibroblast cell line VA13 (WI38 subline 2RA). Cytotoxicity against immortalized human embryonic kidney cell line HEK293T, characterized by a high growth rate, was also studied regarding cytotoxicity against non-cancerous fast-growth cells. A standard MTT assay was performed; verubulin (1) served as a positive reference. The data obtained are presented in Table 1 (for dose–response curves, see Supplementary Materials).
(§2) Human breast cancer cell line MCF7′ and human lung adenocarcinoma cell line A549 were kindly provided by Dr. S. Dmitriev (Lomonosov Moscow State University), immortalized human fibroblast cell line VA13 (WI38 subline 2RA) was kindly provided by Dr. M. Rubtsova (Lomonosov Moscow State University), human embryonic kidney HEK293T cell line was kindly provided by Dr. E. Knyazhanskaya (Lomonosov Moscow State University). MCF7′, VA13, A549 and HEK293T cell lines were maintained in DMEM/F-12 (Thermo Fisher Scientific, Waltham, MA, USA) culture medium containing 10% fetal bovine serum (Thermo Fisher Scientific, Waltham, MA, USA) and 50 μg/mL penicillin and 0.05 mg/mL streptomycin at 37 °C (Thermo Fisher Scientific, Waltham, MA, USA) in 5% CO2. Cells were maintained at 37 °C in a humidified MCO-18AC incubator (Sanyo, Tokyo, Japan) supplied with 5% CO2. Cell cultures were tested for the absence of mycoplasma and validated by STR.
(§3) The cytotoxicity of the substances was tested using the 3-(4,5-dimethylthiazol-2-yl)2,5-diphenyl tetrazolium bromide (MTT) assay with some modifications. A total of 2500 cells per well for the MCF7′, HEK293T, A549 cell lines or 4000 cells per well for the VA-13 cell line were plated out in 135 μL of DMEM-F12 media (Gibco, Thermo Fisher Scientific, Waltham, MA, USA) in a 96-well plate and incubated in the 5% CO2 incubator for the first 20 h without treatment. Then, 15.8 μL of media–DMSO solutions of tested substances (final DMSO concentrations in the media were 0.5% or less) was added to the cells (triplicate each) and cells were treated for 64 h with 0.023 mg/L–50 mg/L (eight dilutions) of compounds 2f,n,o,r; 1.14 μg/L–2.5 mg/L (eight dilutions) of compounds 2a,b,d,g,h,k,l,p,q; 57.2 ng/L–125 μg/L (eight dilutions) of compounds 2e,i,j; 22.9 ng/L–50 μg/L (eight dilutions) of compounds 1,2c,m. Doxorubicin was used as a control substance. Then, the MTT reagent (Paneco LLC, Moscow, Russia) was added to cells up to a final concentration of 0.5 g/L (10 × stock solution in PBS was used) and incubated for 2 h at 37 °C in the incubator, under an atmosphere of 5% CO2. Then, the MTT solution was discarded, and 140 μL of DMSO (PharmaMed LLC, Moscow, Russia) was added. The plates were swayed on a shaker (120 rpm) to dissolve the formazan. The absorbance was measured using a microplate reader (VICTOR X5 Light Plate Reader, PerkinElmer, Waltham, MA, USA) at a wavelength of 555 nm (in order to measure formazan concentration). The results were used to construct dose–response graphs and to estimate IC50 values (IC50 is the concentration resulting in half of the maximal cytotoxic effect) with GraphPad Prism V, GraphPadSoftware, Inc., San Diego, CA, USA.

[3] = test system: human lung epithelial carcinoma cell line A549; assay: MTT cytotoxicity assay, A549; format: cell-based; conditions: A549, 64 h treatment, MTT, read-out: IC50, nM A549
Text: as §1, §2, §3

[4] = test system: immortalized lung fibroblast cell line VA13 (WI38 subline 2RA); assay: MTT cytotoxicity assay, VA13; format: cell-based; conditions: Homo sapiens, VA-13; 64 h treatment, MTT; read-out: IC50, nM VA13
Text: as §1, §2, §3

[5] = test system: immortalized human embryonic kidney cell line HEK293T; assay: MTT cytotoxicity assay, HEK293T; format: cell-based; conditions: HEK-293T, 64 h treatment, MTT, read-out: IC50, nM HEK293T
Text: as §1, §2, §3

[6] = test system: MCF7′, A549, VA13, HEK293T cell lines; assay: MTT cytotoxicity, SAR statements over the cell line panel; format: cell-based, human; conditions: for reduction of cytotoxicity on removal of para-methoxy substituent: 2a vs. 2c, 2g vs. 2i; for cytotoxicity, in words: MTT, 64 h
Text: as §1, §3

Row | SMILES | melting point [°C] | effect on microtubules (MTs) ([1]; 0.03 μM, A549, positive control) | IC50 [2] [nM] | IC50 [3] [nM] | IC50 [4] [nM] | IC50 [5] [nM] | reduction of cytotoxicity on removal of para-methoxy substituent [6] | effect on microtubules (MTs) ([1]; 100 μM (very high concentration), 24 h, A549) | effect on microtubules (MTs) ([1]; 10 μM, 24 h, A549) | effect on microtubules ([1]; 5–10 μM, 24 h, A549) | cytotoxicity, in words [6] | selectivity towards tumor cells ([6]; pair A549/VA13) | reduction of cytotoxicity relative to 2c ([6]; ring B enlarged to seven-membered) | activity relative to 2k ([6]; conformational restriction of 2k)
1 | COc1ccc(/C=C\c2cc(OC)c(OC)c(OC)c2)cc1O [CA-4, combretastatin A-4, reference compound] | – | full depolymerization of MTs | – | – | – | – | – | – | – | – | – | – | – | –
2 | Cc1nc2c(c(N3CCCc4ccccc43)n1)CCCC2 [Compound 2d, 4-(3,4-Dihydroquinolin-1(2H)-yl)-2-methyl-5,6,7,8-tetrahydroquinazoline] | 118 to 119 | – | 9100 ± 2200 | 12600 | 3000 ± 700 | 7300 ± 1200 | – | – | – | – | – | – | – | –
3 | Cc1nc2c(c(N3CCCc4ccc([N+](=O)[O-])cc43)n1)CCCC2 [Compound 2f, 2-Methyl-4-(7-nitro-3,4-dihydroquinolin-1(2H)-yl)-5,6,7,8-tetrahydroquinazoline] | 184 to 185 | – | > 50000 | > 50000 | > 50000 | > 50000 | – | – | – | – | inactive | – | – | –
4 | COc1ccc2c(c1)CCCN2c1nc(C)nc2c1CCCCC2 [Compound 2l, 4-(6-Methoxy-3,4-dihydroquinolin-1(2H)-yl)-2-methyl-6,7,8,9-tetrahydro-5H-cyclohepta[d]pyrimidine] | 122 to 123 | – | 360 ± 70 | 790 ± 19 | 260 ± 80 | 450 ± 100 | – | – | – | – | – | – | – | seven to twelve times less active
5 | COc1ccc(N(C)c2nc3c(c(N(C)c4ccc(OC)cc4)n2)CCCC3)cc1 [Compound 2n, N,N′-bis(4-methoxyphenyl)-N,N′-dimethyl-5,6,7,8-tetrahydroquinazolin-2,4-diamine] | – | – | 2500 ± 140 | 3270 ± 290 | 2290 ± 160 | 1720 ± 68 | – | – | – | – | moderately cytotoxic | – | – | –
6 | COc1ccc2c(c1)CCCN2c1nc(O)nc2c1CCCC2 [Compound 2o, 2-Hydroxy-4-(6-methoxy-3,4-dihydroquinolin-1(2H)-yl)-5,6,7,8-tetrahydroquinazoline] | – | – | > 50000 | > 50000 | > 50000 | > 50000 | – | – | – | – | complete loss of cytotoxicity | – | – | –
7 | COc1ccc2c(c1)CCCN2c1nc2c(c(N3CCCc4cc(OC)ccc43)n1)CCCC2 [Compound 2p, 2,4-Bis(6-methoxy-3,4-dihydroquinolin-1(2H)-yl)-5,6,7,8-tetrahydroquinazoline] | – | – | 660 ± 150 | 640 ± 76 | 290 ± 74 | 510 ± 33 | – | – | – | – | moderately cytotoxic | – | – | –
8 | COc1ccc2c(c1)CCCN2c1nc(OC(C)C)nc2c1CCCC2 [Compound 2q, 2-Isopropoxy-4-(6-methoxy-3,4-dihydroquinolin-1(2H)-yl)-5,6,7,8-tetrahydroquinazoline] | – | – | 310 ± 22 | 360 ± 34 | 160 ± 20 | 250 ± 11 | – | – | – | – | largely restored | – | – | –
9 | COc1ccc2c(c1)CCCN2c1nc2c(c(OC(C)C)n1)CCCC2 [Compound 2r, 4-Isopropoxy-2-(6-methoxy-3,4-dihydroquinolin-1(2H)-yl)-5,6,7,8-tetrahydroquinazoline] | – | – | 24200 | 23800 | 118000 | 53500 | – | – | – | – | moderately cytotoxic | – | – | –

Now from value to compound, other results behind:

Row | melting point [°C] | SMILES | effect on microtubules (MTs) ([1]; 0.03 μM, A549, positive control) | IC50 [2] [nM] | IC50 [3] [nM] | IC50 [4] [nM] | IC50 [5] [nM] | reduction of cytotoxicity on removal of para-methoxy substituent [6] | effect on microtubules (MTs) ([1]; 100 μM (very high concentration), 24 h, A549) | effect on microtubules (MTs) ([1]; 10 μM, 24 h, A549) | effect on microtubules ([1]; 5–10 μM, 24 h, A549) | cytotoxicity, in words [6] | selectivity towards tumor cells ([6]; pair A549/VA13) | reduction of cytotoxicity relative to 2c ([6]; ring B enlarged to seven-membered) | activity relative to 2k ([6]; conformational restriction of 2k)
10 | 84 to 85 | Cc1nc2c(c(N(C)c3ccccc3)n1)CCCC2 [Compound 2a, N,2-Dimethyl-N-phenyl-5,6,7,8-tetrahydroquinazolin-4-amine] | – | 1840 ± 810 | 2200 ± 260 | 1400 ± 180 | 1750 ± 230 | 2–3 orders of magnitude | intact MTs; also recorded: no effect on the microtubule cytoskeleton | – | – | – | – | – | –
11 | 91 to 92 | Cc1ccc(N(C)c2nc(C)nc3c2CCCC3)cc1 [Compound 2b, N,2-Dimethyl-N-(4-methylphenyl)-5,6,7,8-tetrahydroquinazolin-4-amine] | – | 97 ± 7 | 110 ± 8 | 62 ± 8 | 89 ± 3 | – | – | depolymerization of MTs | pronounced or complete disruption of microtubules | – | – | – | –
12 | 128 to 129 | CN(c1ccccc1)c1nc(N)nc2c1CCCC2 [Compound 2g, N^4-Methyl-N^4-phenyl-5,6,7,8-tetrahydroquinazolinyl-2,4-diamine] | – | 28600 | 36400 | 26900 | 26300 | 2–3 orders of magnitude | – | – | – | – | – | – | –
13 | 135 to 136 | Cc1ccc(N(C)c2nc(N)nc3c2CCCC3)cc1 [Compound 2h, N^4-Methyl-N^4-(4-methylphenyl)-5,6,7,8-tetrahydroquinazolinyl-2,4-diamine] | – | 210 ± 15 | 310 ± 23 | 150 ± 14 | 170 ± 18 | – | – | – | – | – | – | – | –
14 | 92 to 93 | COc1ccc(N(C)c2nc(C)nc3c2CCCCC3)cc1 [Compound 2k, N-(4-Methoxyphenyl)-N,2-dimethyl-6,7,8,9-tetrahydro-5H-cyclohepta[d]pyrimidin-4-amine] | – | 53 ± 7 | 79 ± 10 | 22 ± 6 | 39 ± 6 | – | – | – | – | – | no selectivity | more than 10 times | –
